Source: patent US11857519B2, “Compounds and methods for the targeted degradation of enhancer of zeste homolog 2 polypeptide” (Arvinas Operations, Inc., priority 2016, dated 2024)

Target: T1, EZH2 (Homo sapiens, UniProt Q15910)
T1 construct: Protocol of the Cellular Assay of Target Protein Degradation (VCaP Cells, ELISA); endogenous in cells; host or cells: VCaP cells
Assay: Cellular assay of target protein degradation (VCaP cells, ELISA)
Assay type: cell-based
Details: 4 hours, protein degradation range at indicated concentration (relative to DMSO control)
Method in brief: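 EZH2 level measured by sandwich ELISA (TMB, A450 minus A562 background) in lysates of VCaP cells. Cells had been cultured at least 3 days in 5% CSS RPMI before 4 h compound exposure in 0.1% DMSO.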

T1 sequence (Q15910 whole entry): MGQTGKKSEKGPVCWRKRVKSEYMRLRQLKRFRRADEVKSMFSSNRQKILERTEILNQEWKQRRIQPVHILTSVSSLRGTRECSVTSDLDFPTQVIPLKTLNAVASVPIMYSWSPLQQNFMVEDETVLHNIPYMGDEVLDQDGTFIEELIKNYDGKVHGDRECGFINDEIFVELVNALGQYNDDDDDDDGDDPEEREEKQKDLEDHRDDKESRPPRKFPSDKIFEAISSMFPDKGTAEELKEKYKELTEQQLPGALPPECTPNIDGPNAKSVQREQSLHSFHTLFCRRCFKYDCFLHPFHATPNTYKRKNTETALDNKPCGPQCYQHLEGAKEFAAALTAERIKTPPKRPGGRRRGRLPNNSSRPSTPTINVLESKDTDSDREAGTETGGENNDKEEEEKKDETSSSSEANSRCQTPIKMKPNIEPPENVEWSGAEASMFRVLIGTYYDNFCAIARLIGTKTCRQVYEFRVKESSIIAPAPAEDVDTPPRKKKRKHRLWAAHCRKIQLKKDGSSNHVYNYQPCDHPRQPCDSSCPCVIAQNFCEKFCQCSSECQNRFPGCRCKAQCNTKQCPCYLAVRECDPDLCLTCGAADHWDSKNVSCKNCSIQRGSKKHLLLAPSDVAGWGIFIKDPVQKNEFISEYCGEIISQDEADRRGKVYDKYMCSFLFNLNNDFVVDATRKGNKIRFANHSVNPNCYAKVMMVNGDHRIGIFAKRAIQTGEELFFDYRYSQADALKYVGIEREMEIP
T1 sequence (O75530 whole entry partner): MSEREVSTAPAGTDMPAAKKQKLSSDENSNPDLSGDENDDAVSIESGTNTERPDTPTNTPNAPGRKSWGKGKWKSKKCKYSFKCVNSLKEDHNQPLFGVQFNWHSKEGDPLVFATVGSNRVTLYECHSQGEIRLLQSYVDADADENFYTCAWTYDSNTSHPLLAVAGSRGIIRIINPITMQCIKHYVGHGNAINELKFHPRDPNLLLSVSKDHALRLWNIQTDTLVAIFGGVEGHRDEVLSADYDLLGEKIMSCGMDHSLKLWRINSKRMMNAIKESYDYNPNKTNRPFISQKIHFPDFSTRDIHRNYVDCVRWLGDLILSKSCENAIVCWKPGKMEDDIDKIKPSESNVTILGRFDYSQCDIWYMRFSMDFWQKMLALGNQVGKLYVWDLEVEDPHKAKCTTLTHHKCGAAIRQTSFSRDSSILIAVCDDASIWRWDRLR
T1 sequence (Q15022 whole entry partner): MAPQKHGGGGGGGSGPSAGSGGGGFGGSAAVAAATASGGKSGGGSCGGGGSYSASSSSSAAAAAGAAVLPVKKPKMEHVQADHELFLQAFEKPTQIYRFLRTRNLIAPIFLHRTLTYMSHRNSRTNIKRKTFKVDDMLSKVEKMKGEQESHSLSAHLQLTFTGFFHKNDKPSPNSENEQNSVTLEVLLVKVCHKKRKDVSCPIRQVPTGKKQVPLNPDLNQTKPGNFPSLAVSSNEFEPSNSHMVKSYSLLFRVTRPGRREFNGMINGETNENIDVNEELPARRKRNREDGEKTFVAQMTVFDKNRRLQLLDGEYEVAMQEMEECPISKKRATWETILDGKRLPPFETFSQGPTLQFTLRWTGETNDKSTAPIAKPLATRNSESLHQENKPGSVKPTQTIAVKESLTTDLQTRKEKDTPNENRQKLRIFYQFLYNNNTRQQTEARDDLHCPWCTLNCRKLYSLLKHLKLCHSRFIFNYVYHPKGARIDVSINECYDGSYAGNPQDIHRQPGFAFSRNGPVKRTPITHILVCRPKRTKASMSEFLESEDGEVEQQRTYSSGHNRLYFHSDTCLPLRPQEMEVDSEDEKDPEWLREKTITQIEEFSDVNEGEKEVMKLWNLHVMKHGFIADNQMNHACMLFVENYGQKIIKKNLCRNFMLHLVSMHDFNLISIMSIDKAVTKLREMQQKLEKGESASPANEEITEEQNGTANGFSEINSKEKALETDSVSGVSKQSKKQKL

Row | Compound | percent target protein degradation class
1 | CCN(c1cc(-c2ccc(OCCCOCCCOc3ccc4c(c3)C(=O)N(C3CCC(=O)NC3=O)C4=O)cc2)cc(C(=O)NCc2c(C)cc(C)[nH]c2=O)c1C)C1CCOCC1 (stereo not drawn) [Compound 62, N-[(4,6-dimethyl-2-oxo-1,2-dihydropyridin-3-yl)methyl]-5-{4-[3-(3-{[2-(2,6-dioxopiperidin-3-yl)-1,3-dioxo-2,3-dihydro-1H-isoindol-5-yl]oxy}propoxy)propoxy]pheny 1}-3-[ethyl(oxan-4-yl)amino]-2-methylbenzamide] | B (B = degradation between 30% and 60%)
2 | CCN(c1cc(-c2ccc(OCCCCOc3cc(-c4scnc4C)ccc3CNC(=O)[C@@H]3C[C@@H](O)CN3C(=O)[C@H](C(C)C)N3Cc4ccccc4C3=O)cc2)cc(C(=O)NCc2c(C)cc(C)[nH]c2=O)c1C)C1CCOCC1 [Compound 63, (2S,4R)-N-[(2-{4-[4-(3-{[(4,6-dimethyl-2-oxo-1,2-dihydropyridin-3-yl)methyl]carbamoyl}-5-[ethyl(oxan-4-yl)amino]-4-methylphenyl)phenoxy]butoxy}-4-(4-methyl-1,3-thiazol-5-yl)phenyl)methyl]-4-hydroxy-1-[(2S)-3-methyl-2-(1-oxo-2,3-dihydro-1H-isoindol-2-yl)butanoyl]pyrrolidine-2-carboxamide] | B (B = degradation between 30% and 60%)
3 | CCN(c1cc(-c2ccc(CCCOCCCCC(=O)N[C@H](C(=O)N3C[C@H](O)C[C@H]3C(=O)N[C@@H](C)c3ccc(-c4scnc4C)cc3)C(C)(C)C)cc2)cc(C(=O)NCc2c(C)cc(C)[nH]c2=O)c1C)C1CCOCC1 [Compound 88, (2S,4R)-1-((S)-2-(5-(3-(3′-(((4,6-dimethyl-2-oxo-1,2-dibydropyridin-3-yl)methyl)carbamoyl)-5′-(ethyl(tetrahydro-2H-pyran-4-yl)amino)-41-methyl-[1,1′-biphenyl]-4-yl)propoxy)pentanamido)-3,3-dimethylbutanoyl)-4-hydroxy-N-((S)-1-(4-(4-methylthiazol-5-yl)phenyl)ethyl)pyrrolidine-2-carboxamide] | A (A = degradation more than 60%)
4 | CCN(c1cc(-c2ccc(CCCOCCOCC(=O)N[C@H](C(=O)N3C[C@H](O)C[C@H]3C(=O)N[C@@H](C)c3ccc(-c4scnc4C)cc3)C(C)(C)C)cc2)cc(C(=O)NCc2c(C)cc(C)[nH]c2=O)c1C)C1CCOCC1 [Compound 89] | A (A = degradation more than 60%)
5 | CCN(c1cc(-c2ccc(OCCN3CCN(c4ccc5c(c4)C(=O)N(C4CCC(=O)NC4=O)C5=O)CC3)cc2)cc(C(=O)NCc2c(C)cc(C)[nH]c2=O)c1C)C1CCOCC1 (stereo not drawn) [Compound 91, N-((4,6-dimethyl-2-oxo-1,2-dihydropyridin-3-yl)methyl)-4′-(2-(4-(2-(2,6-dioxopiperidin-3-yl)-1,3-dioxoisoindolin-5-yl)piperazin-1-yl)ethoxy)-5-(ethyl(tetrahydro-2H-pyran-4-yl)amino)-4-methyl-[1,1′-biphenyl]-3-carboxamide] | A (A = degradation more than 60%)
6 | CCN(c1cc(-c2ccc(OCCCCOCC(=O)N[C@H](C(=O)N3C[C@H](O)C[C@H]3C(=O)N[C@@H](C)c3ccc(-c4scnc4C)cc3)C(C)(C)C)cc2)cc(C(=O)NCc2c(C)cc(C)[nH]c2=O)c1C)C1CCOCC1 [Compound 93] | A (A = degradation more than 60%)
7 | CCN(c1cc(-c2ccc(OCCCCCOCC(=O)N[C@H](C(=O)N3C[C@H](O)C[C@H]3C(=O)N[C@@H](C)c3ccc(-c4scnc4C)cc3)C(C)(C)C)cc2)cc(C(=O)NCc2c(C)cc(C)[nH]c2=O)c1C)C1CCOCC1 [Compound 94, (2S,4R)-1-((S)-2-(2-((5-((3′-(((4,6-dimethyl-2-oxo-1,2-dihydropyridin-3-yl)methyl)carbamoyl)-5′-(ethyl(tetrahydro-2H-pyran-4-yl)amino)-4′-methyl-[1,1′-biphenyl]-4-yl)oxy)pentyl)oxy)acetamido)-3,3-dimethylbutanoyl)-4-hydroxy-N-((S)-1-(4-(4-methylthiazol-5-yl)phenyl)ethyl)pyrrolidine-2-carboxamide] | A (A = degradation more than 60%)
8 | CCN(c1cc(-c2ccc(COCCOc3ccc4c(c3)C(=O)N([C@H](C(=O)N3C[C@H](O)C[C@H]3C(=O)N[C@@H](C)c3ccc(-c5scnc5C)cc3)C(C)C)C4)cc2)cc(C(=O)NCc2c(C)cc(C)[nH]c2=O)c1C)C1CCOCC1 [Compound 99, (2S,4R)-1-((S)-2-(6-(2-((3′-((4,6-dimethyl-2-oxo-1,2-dihydropyridin-3-yl)methylcarbamoyl)-5′-(ethyl(tetrahydro-2H-pyran-4-yl)amino)-4′-methylbiphenyl-4-yl)methoxy)ethoxy)-1-oxoisoindolin-2-yl)-3-methylbutanoyl)-4-hydroxy-N—((S)-1-(4-(4-methylthiazol-5-yl)phenyl)ethyl)pyrrolidine-2-carboxamide] | A (A = degradation more than 60%)

Continued, values first:

Row | percent target protein degradation class | Compound
9 | B (B = degradation between 30% and 60%) | CCN(c1cc(-c2ccc(OCCOc3cc(-c4scnc4C)ccc3CNC(=O)[C@@H]3C[C@@H](O)CN3C(=O)[C@H](C(C)C)N3Cc4ccccc4C3=O)cc2)cc(C(=O)NCc2c(C)cc(C)[nH]c2=O)c1C)C1CCOCC1 [Compound 64, N-[(2-{2-[4-(3-{[(4,6-dimethyl-2-oxo-1,2-dihydropyridin-3-yl)methyl]carbamoyl}-5-[ethyl(oxan-4-yl)amino]-4-methylphenyl)phenoxy]ethoxy}-4-(4-methyl-1,3-thiazol-5-yl)phenyl)methyl]-4-hydroxy-1-[3-methyl-2-(1-oxo-2,3-dihydro-1H-isoindol-2-yl)butanoyl]pyrrolidine-2-carboxamide]
10 | B (B = degradation between 30% and 60%) | CCN(c1cc(-c2ccc(OCCCOc3cc(-c4scnc4C)ccc3CNC(=O)[C@@H]3C[C@@H](O)CN3C(=O)[C@H](C(C)C)N3Cc4ccccc4C3=O)cc2)cc(C(=O)NCc2c(C)cc(C)[nH]c2=O)c1C)C1CCOCC1 [Compound 90, (2S,4R)-N-(2-(3-((3′-(((4,6-dimethyl-2-oxo-1,2-dihydropyridin-3-yl)methyl)carbamoyl)-5′-(ethyl(tetrahydro-2H-pyran-4-yl)amino)-4′-methyl-[1,1′-biphenyl]-4-yl)oxy)propoxy)-4-(4-methylthiazol-5-yl)benzyl)-4-hydroxy-1-((S)-3-methyl-2-(1-oxoisoindolin-2-yl)butanoyl)pyrrolidine-2-carboxamide]
11 | A (A = degradation more than 60%) | CCN(c1cc(-c2ccc(OCCCOCC(=O)N[C@H](C(=O)N3C[C@H](O)C[C@H]3C(=O)N[C@@H](C)c3ccc(-c4scnc4C)cc3)C(C)(C)C)cc2)cc(C(=O)NCc2c(C)cc(C)[nH]c2=O)c1C)C1CCOCC1 [Compound 95, (2S,4R)-1-((S)-2-(2-(3-((3′-(((4,6-dimethyl-2-oxo-1,2-dihydropyridin-3-yl)methyl)carbamoyl)-5′-(ethyl(tetrahydro-2H-pyran-4-yl)amino)-4′-methyl-[1,1′-biphenyl]-4-yl)oxy)propoxy)acetamido)-3,3-dimethylbutanoyl)-4-hydroxy-N-((S)-1-(4-(4-methylthiazol-5-yl)phenyl)ethyl)pyrrolidine-2-carboxamide]
12 | B (B = degradation between 30% and 60%) | CCN(c1cc(-c2ccc(OCCOCCOCC(=O)N[C@H](C(=O)N3C[C@@H](O)C[C@@H]3C(=O)N[C@@H](C)c3ccc(-c4scnc4C)cc3)C(C)(C)C)cc2)cc(C(=O)NCc2c(C)cc(C)[nH]c2=O)c1C)C1CCOCC1 [Compound 96, (2R,4S)-1-((S)-2-(2-(2-(2-((3′-(((4,6-dimethyl-2-oxo-1,2-dihydropyridin-3-yl)methyl)carbamoyl)-5′-(ethyl(tetrahydro-2H-pyran-4-yl)amino)-4′-methyl-[1,1′-biphenyl]-4-yl)oxy)ethoxy)ethoxy)acetamido)-3,3-dimethylbutanoyl)-4-hydroxy-N-((S)-1-(4-(4-methylthiazol-5-yl)phenyl)ethyl)pyrrolidine-2-carboxamide]
13 | B (B = degradation between 30% and 60%) | CCN(c1cc(-c2ccc(OCCCOc3ccc4c(c3)C(=O)N([C@@H](C(=O)N3C[C@H](O)C[C@H]3C(=O)N[C@@H](C)c3ccc(-c5scnc5C)cc3)C(C)C)C4)cc2)cc(C(=O)NCc2c(C)cc(C)[nH]c2=O)c1C)C1CCOCC1 [Compound 97, (2S,4R)-1-((R)-2-(6-(3-((3′-(((4,6-dimethyl-2-oxo-1,2-dihydropyridin-3-yl)methyl)carbamoyl)-5′-(ethyl(tetrahydro-2H-pyran-4-yl)amino)-4′-methyl-[1,1′-biphenyl]-4-yl)oxy)propoxy)-1-oxoisoindolin-2-yl)-3-methylbutanoyl)-4-hydroxy-N-((S)-1-(4-(4-methylthiazol-5-yl)phenyl)ethyl)pyrrolidine-2-carboxamide]
14 | B (B = degradation between 30% and 60%) | CCN(c1cc(-c2ccc(OCCCOc3ccc4c(c3)C(=O)N([C@H](C(=O)N3C[C@H](O)C[C@H]3C(=O)N[C@@H](C)c3ccc(-c5scnc5C)cc3)C(C)C)C4)cc2)cc(C(=O)NCc2c(C)cc(C)[nH]c2=O)c1C)C1CCOCC1 [Compound 98, (2S,4R)-1-((S)-2-(6-(3-((3′-(((4,6-dimethyl-2-oxo-1,2-dihydropyridin-3-yl)methyl)carbamoyl)-5′-(ethyl(tetrahydro-2H-pyran-4-yl)amino)-4′-methyl-[1,1′-biphenyl]-4-yl)oxy)propoxy)-1-oxoisoindolin-2-yl)-3-methylbutanoyl)-4-hydroxy-N-((S)-1-(4-(4-methylthiazol-5-yl)phenyl)ethyl)pyrrolidine-2-carboxamide]
15 | A (A = degradation more than 60%) | CCN(c1cc(-c2ccc(OCCOc3ccc4c(c3)C(=O)N([C@H](C(=O)N3C[C@H](O)C[C@H]3C(=O)N[C@@H](C)c3ccc(-c5scnc5C)cc3)C(C)C)C4)cc2)cc(C(=O)NCc2c(C)cc(C)[nH]c2=O)c1C)C1CCOCC1 [Compound 100]
